Experimental data published in US9938276B2, “6,5-bicyclic octahydropyrrolopyridine orexin receptor antagonists” (Merck Sharp & Dohme Corp., priority 2014, dated 2018).

What was measured:
human orexin-2 receptor = human orexin-2 receptor (Homo sapiens (Human), UniProt O43614); assay: hOX2R FLIPR Ca2+ flux assay; assay type: cell-based; settings: CHO cells expressing the receptor; agonist 70 pM Ala-6,12 human orexin-A
Method: In a typical experiment the OX1 and OX2 receptor antagonistic activity of the compounds of the present invention was determined in accordance with the following experimental method. For intracellular calcium measurements, Chinese hamster ovary (CHO) cells expressing the rat orexin-1 receptor or the human orexin-2 receptor, are grown in Iscove's modified DMEM containing 2 mM L-glutamine, […], 1% hypoxanthine-thymidine supplement, 100 U/ml penicillin, 100 μg/ml streptomycin and 10% heat-inactivated fetal calf serum (FCS). The cells are seeded at 20,000 cells/well into Becton-Dickinson black 384-well clear bottom sterile plates coated with poly-D-lysine. All reagents were from GIBCO-Invitrogen Corp. The seeded plates are incubated overnight at 37° C. and 5% CO2. Ala-6,12 human orexin-A as the agonist is prepared as a 1 mM stock solution in 1% bovine serum albumin (BSA) and diluted in assay buffer (HBSS containing 20 mM HEPES, 0.1% BSA and 2.5 mM probenecid, pH7.4) for use in the assay at a final concentration of 70 pM. Test compounds are prepared as 10 mM stock solution in DMSO, then diluted in 384-well plates, first in DMSO, then assay buffer. On the day of the assay, cells are washed 3 times with 100 μl assay buffer and then incubated for 60 min (37° C., 5% CO2) in 60 μl assay buffer containing 1 μM Fluo-4AM ester, 0.02% pluronic acid, and 1% BSA. The dye loading solution is then aspirated and cells are washed 3 times with 100 μl assay buffer. 30 μl of that same buffer is left in each well. Within the Fluorescent Imaging Plate Reader (FLIPR, Molecular Devices), test compounds are added to the plate in a volume of 25 μl, incubated for 5 min and finally 25 μl of agonist is added. Fluorescence is measured for each well at 1 second intervals for 5 minutes and the height of each fluorescence peak is compared to the height of the fluorescence peak induced by 70 pM Ala-6,12 orexin-A with buffer in place of antagonist. […] Alternatively, compound potency can be assessed by a radioligand binding assay (described in Bergman et. al. Bioorg. Med. Chem. Lett. 2008, 18, 1425-1430) in which the inhibition constant (Ki) is determined in membranes prepared from CHO cells expressing either the OX1 or OX2 receptor. The intrinsic orexin receptor antagonist activity of a compound which may be used in the present invention may be determined by these assays.

hOX1R = hOX1R (Homo sapiens, UniProt O43613); assay: hOX1R FLIPR Ca2+ flux assay; assay type: cell-based; settings: CHO cells expressing the receptor; agonist 70 pM Ala-6,12 human orexin-A

Sequence of human orexin-2 receptor (O43614 whole entry): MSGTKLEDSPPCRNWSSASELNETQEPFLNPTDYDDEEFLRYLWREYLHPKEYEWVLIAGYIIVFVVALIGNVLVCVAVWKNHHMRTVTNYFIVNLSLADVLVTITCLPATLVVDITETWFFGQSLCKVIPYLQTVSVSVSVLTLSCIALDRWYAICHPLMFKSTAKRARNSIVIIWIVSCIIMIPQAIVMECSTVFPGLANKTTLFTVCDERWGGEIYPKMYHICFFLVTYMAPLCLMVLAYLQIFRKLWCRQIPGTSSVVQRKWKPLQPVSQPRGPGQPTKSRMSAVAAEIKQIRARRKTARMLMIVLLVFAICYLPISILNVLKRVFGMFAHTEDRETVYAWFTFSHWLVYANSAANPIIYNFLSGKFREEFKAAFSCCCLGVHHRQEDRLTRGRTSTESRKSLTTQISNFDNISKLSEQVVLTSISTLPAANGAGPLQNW

SMILES	IC50 (human orexin-2 receptor) [µM]	IC50 (hOX1R) [µM]
COC(=O)c1nc(N2CC[C@H]3CCN(C(=O)c4ccccc4-n4nccn4)C[C@H]32)sc1C (stereo in doubt) [Example B12, methyl 2-((3aR, 7aS)-6-(2-(2H-1,2,3-triazol-2-yl)benzoyl)octahydro-1H-pyrrolo[2,3-c]pyridin-1-yl)-5-methylthiazole-4-carboxylate]	1.34	10
N#Cc1ccnc(N2CC[C@H]3CCN(C(=O)c4ccccc4-n4ncnn4)C[C@H]32)c1 (stereo in doubt) [Example D2, 2-((3aS, 7aS)-6-(2-(2H-tetrazol-2-yl)benzoyl)octahydro-1H-pyrrolo[2,3-c]pyridin-1-yl)isonicotinonitrile]	0.11	10
N#Cc1ccnc(N2CC[C@H]3CCN(C(=O)c4ccccc4OC(F)(F)F)C[C@H]32)c1 (stereo in doubt) [Example D3, 2-((3aS, 7aS)-6-(2-(trifluoromethoxy)benzoyl)octahydro-1H-pyrrolo[2,3-c]pyridin-1-yl)isonicotinonitrile]	0.0791	10
N#Cc1ccnc(N2CC[C@H]3CCN(C(=O)c4nccnc4-c4ccccn4)C[C@H]32)c1 (stereo in doubt) [Example D4, 2-((3aS, 7aS)-6-(3-(pyridin-2-yl)pyrazine-2-carbonyl)octahydro-1H-pyrrolo[2,3-c]pyridin-1-yl)isonicotinonitrile]	0.328	≥ 10
N#Cc1ccnc(N2CC[C@H]3CCN(C(=O)c4cccnc4-n4cccn4)C[C@H]32)c1 (stereo in doubt) [Example D5, 2-((3aS, 7aS)-6-(2-(1H-pyrazol-1-yl)nicotinoyl)octahydro-1H-pyrrolo[2,3-c]pyridin-1-yl)isonicotinonitrile]	0.037	10
N#Cc1ccnc(N2CC[C@H]3CCN(C(=O)c4nccnc4-n4cccn4)C[C@H]32)c1 (stereo in doubt) [Example D6, 2-((3aS, 7aS)-6-(3-(1H-pyrazol-1-yl)pyrazine-2-carbonyl)octahydro-1H-pyrrolo[2,3-c]pyridin-1-yl)isonicotinonitrile]	0.117	10
N#Cc1ccnc(N2CC[C@H]3CCN(C(=O)c4ccccc4-n4nccn4)C[C@H]32)c1 [Example A1, 2-((3aS,7aS)-6-(2-(2H-1,2,3-triazol-2-yl)benzoyl)octahydro-1H-pyrrolo[2,3-c]pyridin-1-yl)isonicotinonitrile]	0.0405	10
Cc1cc(C)nc(N2CC[C@@H]3CCN(C(=O)c4ccccc4-n4nccn4)C[C@@H]32)n1 [Example A2, (2-(2H-1,2,3-triazol-2-yl)phenyl)((3aR, 7aR)-1-(4,6-dimethylpyrimidin-2-yl)hyexahydro-1H-pyrrolo[2,3-c]pyridin-6(2H)-yl)methanone]	0.163	10
N#Cc1ccnc(N2CC[C@@H]3CCN(C(=O)c4ccccc4-n4nccn4)C[C@@H]32)n1 [Example A3, 2-((3aR, 7aR)-6-(2-(2H-1,2,3-triazol-2-yl)benzoyl)octahydro-1H-pyrrolo[2,3-c]pyridin-1-yl)pyrimidine-4-carbonitrile]	0.943	10
Cc1cc(C#N)nc(N2CC[C@@H]3CCN(C(=O)c4ccccc4-n4nccn4)C[C@@H]32)n1 [Example A4, 2-((3aR, 7aR)-6-(2-(2H-1,2,3-triazol-2-yl)benzoyl)octahydro-1H-pyrrolo[2,3-c]pyridin-1-yl)-6-methylpyrimidine-4-carbonitrile]	10	10
COc1cc(OC)nc(N2CC[C@@H]3CCN(C(=O)c4ccccc4-n4nccn4)C[C@@H]32)n1 [Example A5, (2-(2H-1,2,3-triazol-2-yl)phenyl)((3aR, 7aR)-1-(4,6-dimethoxypyrimidin-2-yl)hexahydro-1H-pyrrolo[2,3-c]pyridin-6(2H)-yl)methanone]	2.1	10
O=C(c1ccccc1-n1nccn1)N1CC[C@H]2CCN(c3ncccn3)[C@H]2C1 [Example A6]	6.08	10
COC(=O)c1ccnc(N2CC[C@@H]3CCN(C(=O)c4ccccc4-n4nccn4)C[C@@H]32)c1 [Example A8]	≥ 10	≥ 10
COc1cc(N2CC[C@@H]3CCN(C(=O)c4ccccc4-n4nccn4)C[C@@H]32)ncc1C#N [Example A9]	2.64	≥ 10
O=C(c1ccccc1-n1nccn1)N1CC[C@H]2CCN(c3ccc(-n4ccnc4)nn3)[C@H]2C1 [Example A10, (3aR, 7aR)-(1-(6-(1H-imidazol-1-yl)pyridazin-3-yl)hexahydro-1H-pyrrolo[2,3-c]pyridin-6(2H)-yl)(2-(2H-1,2,3-triazol-2-yl)phenyl)methanone]	10	10
Cc1ccc(C)n1-c1ccc(N2CC[C@@H]3CCN(C(=O)c4ccccc4-n4nccn4)C[C@@H]32)nn1 [Example A11, (2-(2H-1,2,3-triazol-2-yl)phenyl)((3aR, 7aR)-1-(6-(2,5-dimethyl-1H-pyrrol-1-yl)pyridazin-3-yl)hexahydro-1H-pyrrolo[2,3-c]pyridin-6(2H)-yl)methanone]	10	10
COC(=O)c1ccc(N2CC[C@@H]3CCN(C(=O)c4ccccc4-n4nccn4)C[C@@H]32)nn1 [Example A12, methyl 6-((3aR, 7aR)-6-(2-(2H-1,2,3-triazol-2-yl)benzoyl)octahydro-1H-pyrrolo[2,3-c]pyridin-1-yl)pyridazine-3-carboxylate]	≥ 10	≥ 10
O=C(c1ccccc1-n1nccn1)N1CC[C@H]2CCN(c3ncnc4scnc34)[C@H]2C1 [Example A13, (2-(2H-1,2,3-triazol-2-yl)phenyl)((3aR, 7aR)-1-(thiazolo[5,4-d]pyrimidin-7-yl)hexahydro-1H-pyrrolo[2,3-c]pyridin-6(2H)-yl)methanone]	≥ 10	≥ 10
N#Cc1cc(Cl)ncc1N1CC[C@@H]2CCN(C(=O)c3ccccc3-n3nccn3)C[C@@H]21 [Example A14, 5-((3aR, 7aR)-6-(2-(2H-1,2,3-triazol-2-yl)benzoyl)octahydro-1H-pyrrolo[2,3-c]pyridin-1-yl)-2-chloroisonicotinonitrile]	≥ 10	≥ 10
Cc1c(C#N)ccnc1N1CC[C@@H]2CCN(C(=O)c3ccccc3-n3nccn3)C[C@@H]21 [Example A15, 2-(cis-6-(2-(2H-1,2,3-triazol-2-yl)benzoyl)ocathydro-1H-pyrrolo[2,3-c]pyridin-1-yl)-3-methylisonicotinonitrile]	0.0848	≥ 10
CN(C)c1ccnc(N2CC[C@@H]3CCN(C(=O)c4ccccc4-n4nccn4)C[C@@H]32)c1C#N [Example A17, 4-(dimethylamino)-2-[(3aR, 7aR)-6-{[2-(2H-1,2,3-triazol-2-yl)phenyl]carbonyl}octahydro-1H-pyrrolo[2,3-c]pyridin-1-yl]pyridine-3-carbonitrile]	0.0698	≥ 10
CN(C)c1cc(Cl)nc(N2CC[C@@H]3CCN(C(=O)c4ccccc4-n4nccn4)C[C@@H]32)n1 [Example A18, 6-chloro-N,N-dimethyl-2-[(3aR, 7aR)-6-{[2-(2H-1,2,3-triazol-2-yl)phenyl]carbonyl}octahydro-1H-pyrrolo[2,3-c]pyridin-1-yl]pyrimidin-4-amine]	0.13	3.24
